Assays:
bermudagrass = test: Test C pre-/postemergence herbicide test; assay type: in vivo, Cynodon dactylon; conditions: for Bermudagrass plant response rating: Preemergence, 500 g ai/ha
Procedure, shortened: (§1)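 Pre/post spray; non-phytotoxic solvent + surfactant. Post-timing 1–4 leaves, 2–18 cm. Read-out: visual % control vs untreated, day 12–14, greenhouse.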

cocklebur = test: Test C pre-/postemergence herbicide test; assay type: in vivo, Xanthium strumarium; conditions: for Cocklebur plant response rating: Preemergence, 500 g ai/ha
Procedure, shortened: as §1

[1] = tested on: smallflower umbrella sedge; test: Test C flooded paddy test; assay type: in vivo, Cyperus difformis; conditions: for Plant response rating, Sedge, Umbrella: 500 g ai/ha, visual rating after 12 to 14 days
Surinam grass = test: Test C pre-/postemergence herbicide test; assay type: in vivo, Urochloa decumbens
Procedure, shortened: as §1

soybean = test: Test C pre-/postemergence herbicide test; assay type: in vivo, Glycine max
Procedure, shortened: as §1

ducksalad = test: Test C flooded paddy test; assay type: in vivo, Heteranthera limosa; conditions: for Plant response rating, Ducksalad: 500 g ai/ha, visual rating after 12 to 14 days
goosegrass = test: Test C pre-/postemergence herbicide test; assay type: in vivo, Eleusine indica
Procedure, shortened: as §1

johnsongrass = test: Test C pre-/postemergence herbicide test; assay type: in vivo, Sorghum halepense
Procedure, shortened: as §1

pigweed = test: Test C pre-/postemergence herbicide test; assay type: in vivo, Amaranthus retroflexus
Procedure, shortened: as §1

[2] = 62 g ai/ha, preemergence, scale 0 to 100, 0 no effect, 100 complete control
[3] = 125 g ai/ha, scale 0 (no effect) to 100 (complete control), visual, 12 to 14 days, preemergence
[4] = 250 g ai/ha, scale 0-100, preemergence
[5] = scale 0 to 100, 0 no effect, 100 complete control
[6] = 62 g ai/ha, preemergence, scale 0 to 100
[7] = 62 g ai/ha, scale 0 to 100 (0 no effect, 100 complete control)
[8] = 125 g ai/ha, scale 0 to 100 (0 no effect, 100 complete control)
[9] = 250 g ai/ha, scale of 0 to 100, 0 is no effect, 100 is complete control
[10] = scale 0 to 100 (0 no effect, 100 complete control)
[11] = Preemergence, 500 g ai/ha, scale 0 to 100, 0 no effect, 100 complete control
[12] = 500 g ai/ha, scale 0 to 100 (0 no effect, 100 complete control), visual, 12 to 14 days, preemergence
[13] = Postemergence, 250 g ai/ha, scale 0 to 100, 0 no effect, 100 complete control
[14] = postemergence, 125 g ai/ha, scale 0 to 100
[15] = postemergence, 31 g ai/ha, scale 0 to 100
[16] = postemergence, 62 g ai/ha, scale 0 to 100

## CCNC(=O)c1ccc(F)c(NC(=O)c2cn(C(C)(C)C)nc2CC)c1 [Compound 193]
bermudagrass; [2]
  Plant response rating, Bermudagrass: 60
bermudagrass; [3]
  Plant response rating, Bermudagrass: 80
bermudagrass; [4]
  Plant response rating, Bermudagrass: 85
bermudagrass; [5]
  Bermudagrass plant response rating: 100
cocklebur; [6]
  Plant response rating, Cocklebur: 0
cocklebur; [5]
  Cocklebur plant response rating: 100
[1]; [7]
  Sedge, Umbrella plant response rating: 75
[1]; [8]
  Sedge, Umbrella plant response rating: 75
[1]; [9]
  Sedge, Umbrella plant response rating: 80
[1]; [10]
  Plant response rating, Sedge, Umbrella: 85
Surinam grass; [6]
  Plant response rating, Surinam Grass: 50
Surinam grass; [3]
  Plant response rating, Surinam Grass: 80
Surinam grass; [4]
  Plant response rating, Surinam Grass: 95
Surinam grass; [11]
  Surinam Grass plant response rating: 100
soybean; [6]
  Plant response rating, Soybean: 30
soybean; [3]
  Plant response rating, Soybean: 30
soybean; [4]
  Plant response rating, Soybean: 50
soybean; [11]
  Soybean plant response rating: 100
ducksalad; [7]
  Ducksalad plant response rating: 55
ducksalad; [8]
  Ducksalad plant response rating: 70
ducksalad; [9]
  Ducksalad plant response rating: 90
ducksalad; [10]
  Plant response rating, Ducksalad: 90
goosegrass; [6]
  Plant response rating, Goosegrass: 60
goosegrass; [3]
  Plant response rating, Goosegrass: 80
goosegrass; [4]
  Plant response rating, Goosegrass: 80
goosegrass; [11]
  Goosegrass plant response rating: 95
johnsongrass; [6]
  Plant response rating, Johnsongrass: 60
johnsongrass; [3]
  Plant response rating, Johnsongrass: 85
johnsongrass; [4]
  Plant response rating, Johnsongrass: 90
johnsongrass; [11]
  Johnsongrass plant response rating: 100
pigweed; [6]
  Plant response rating, Pigweed: 100
pigweed; [3]
  Plant response rating, Pigweed: 100
pigweed; [4]
  Plant response rating, Pigweed: 100
pigweed; [11]
  Pigweed plant response rating: 100

## CCn1nc(C(C)(C)C)cc1C(=O)Nc1cc(C(=O)N(C)OC)ccc1F [Compound 244]
bermudagrass; [2]
  Plant response rating, Bermudagrass: 95
bermudagrass; [3]
  Plant response rating, Bermudagrass: 100
bermudagrass; [4]
  Plant response rating, Bermudagrass: 100
bermudagrass; [5]
  Bermudagrass plant response rating: 100
cocklebur; [6]
  Plant response rating, Cocklebur: 0
cocklebur; [3]
  Plant response rating, Cocklebur: 0
cocklebur; [4]
  Plant response rating, Cocklebur: 0
cocklebur; [5]
  Cocklebur plant response rating: 0
[1]; [7]
  Sedge, Umbrella plant response rating: 20
[1]; [8]
  Sedge, Umbrella plant response rating: 65
[1]; [9]
  Sedge, Umbrella plant response rating: 70
[1]; [10]
  Plant response rating, Sedge, Umbrella: 85
Surinam grass; [6]
  Plant response rating, Surinam Grass: 100
Surinam grass; [4]
  Plant response rating, Surinam Grass: 100
Surinam grass; [12]
  Plant response rating, Surinam Grass: 100
soybean; [6]
  Plant response rating, Soybean: 0
soybean; [4]
  Plant response rating, Soybean: 10
soybean; [12]
  Plant response rating, Soybean: 15
ducksalad; [7]
  Ducksalad plant response rating: 25
ducksalad; [8]
  Ducksalad plant response rating: 85
ducksalad; [9]
  Ducksalad plant response rating: 85
ducksalad; [10]
  Plant response rating, Ducksalad: 95
goosegrass; [6]
  Plant response rating, Goosegrass: 70
goosegrass; [3]
  Plant response rating, Goosegrass: 95
goosegrass; [4]
  Plant response rating, Goosegrass: 100
goosegrass; [12]
  Plant response rating, Goosegrass: 100
johnsongrass; [6]
  Plant response rating, Johnsongrass: 60
johnsongrass; [3]
  Plant response rating, Johnsongrass: 95
johnsongrass; [4]
  Plant response rating, Johnsongrass: 95
johnsongrass; [12]
  Plant response rating, Johnsongrass: 100
pigweed; [6]
  Plant response rating, Pigweed: 100
pigweed; [3]
  Plant response rating, Pigweed: 100
pigweed; [4]
  Plant response rating, Pigweed: 100
pigweed; [12]
  Plant response rating, Pigweed: 100

## CCOC(=O)c1cccc(NC(=O)c2cc(C3(C)CC3)nn2CC)c1 [Compound 295]
bermudagrass; [13]
  Plant response rating, Bermudagrass: 0
bermudagrass; [14]
  Plant response rating, Bermudagrass: 0
bermudagrass; [15]
  Plant response rating, Bermudagrass: 0
bermudagrass; [16]
  Plant response rating, Bermudagrass: 0
cocklebur; [13]
  Plant response rating, Cocklebur: 10
cocklebur; [14]
  Plant response rating, Cocklebur: 5
cocklebur; [15]
  Plant response rating, Cocklebur: 5
cocklebur; [16]
  Plant response rating, Cocklebur: 5
[1]; 62 g ai/ha, scale 0 to 100
  Sedge, Umbrella plant response rating: 80
[1]; [8]
  Sedge, Umbrella plant response rating: 80
[1]; [9]
  Sedge, Umbrella plant response rating: 80
[1]; [10]
  Plant response rating, Sedge, Umbrella: 80
Surinam grass; [13]
  Plant response rating, Surinam Grass: 15
Surinam grass; [14]
  Plant response rating, Surinam Grass: 5
Surinam grass; [16]
  Plant response rating, Surinam Grass: 5
soybean; [13]
  Plant response rating, Soybean: 55
soybean; [14]
  Plant response rating, Soybean: 50
soybean; [16]
  Plant response rating, Soybean: 50
ducksalad; 62 g ai/ha, scale 0 to 100
  Ducksalad plant response rating: 0
ducksalad; [8]
  Ducksalad plant response rating: 0
ducksalad; [9]
  Ducksalad plant response rating: 25
ducksalad; [10]
  Plant response rating, Ducksalad: 30
goosegrass; [13]
  Plant response rating, Goosegrass: 50
goosegrass; [14]
  Plant response rating, Goosegrass: 20
goosegrass; [16]
  Plant response rating, Goosegrass: 20
johnsongrass; [13]
  Plant response rating, Johnsongrass: 5
johnsongrass; [14]
  Plant response rating, Johnsongrass: 5
johnsongrass; [16]
  Plant response rating, Johnsongrass: 5
pigweed; [13]
  Plant response rating, Pigweed: 95
pigweed; [16]
  Plant response rating, Pigweed: 80

## CCn1nc(C(C)(C)C)cc1C(=O)Nc1ccc(OC)c(OC)c1 [Compound 298]
bermudagrass; [2]
  Plant response rating, Bermudagrass: 50
bermudagrass; [3]
  Plant response rating, Bermudagrass: 55
bermudagrass; [4]
  Plant response rating, Bermudagrass: 80
bermudagrass; [5]
  Bermudagrass plant response rating: 95
cocklebur; [6]
  Plant response rating, Cocklebur: 0
cocklebur; [3]
  Plant response rating, Cocklebur: 0
cocklebur; [4]
  Plant response rating, Cocklebur: 0
cocklebur; [5]
  Cocklebur plant response rating: 0
[1]; 62 g ai/ha, scale 0 to 100
  Sedge, Umbrella plant response rating: 0
[1]; [8]
  Sedge, Umbrella plant response rating: 0
[1]; [9]
  Sedge, Umbrella plant response rating: 70
[1]; [10]
  Plant response rating, Sedge, Umbrella: 80
Surinam grass; [6]
  Plant response rating, Surinam Grass: 5
Surinam grass; [4]
  Plant response rating, Surinam Grass: 40
Surinam grass; [12]
  Plant response rating, Surinam Grass: 70
soybean; [6]
  Plant response rating, Soybean: 0
soybean; [4]
  Plant response rating, Soybean: 5
soybean; [12]
  Plant response rating, Soybean: 60
ducksalad; 62 g ai/ha, scale 0 to 100
  Ducksalad plant response rating: 35
ducksalad; [8]
  Ducksalad plant response rating: 40
ducksalad; [9]
  Ducksalad plant response rating: 80
ducksalad; [10]
  Plant response rating, Ducksalad: 90
goosegrass; [6]
  Plant response rating, Goosegrass: 85
goosegrass; [3]
  Plant response rating, Goosegrass: 95
goosegrass; [4]
  Plant response rating, Goosegrass: 100
goosegrass; [12]
  Plant response rating, Goosegrass: 100
johnsongrass; [6]
  Plant response rating, Johnsongrass: 20
johnsongrass; [3]
  Plant response rating, Johnsongrass: 40
johnsongrass; [4]
  Plant response rating, Johnsongrass: 60
johnsongrass; [12]
  Plant response rating, Johnsongrass: 90
pigweed; [6]
  Plant response rating, Pigweed: 100
pigweed; [3]
  Plant response rating, Pigweed: 100
pigweed; [4]
  Plant response rating, Pigweed: 100
pigweed; [12]
  Plant response rating, Pigweed: 100

## CCn1nc(C2(C)CC2)cc1C(=O)Nc1cc(C(=O)N2CC=CC2)ccc1F [Compound 301]
bermudagrass; [2]
  Plant response rating, Bermudagrass: 80
bermudagrass; [3]
  Plant response rating, Bermudagrass: 90
bermudagrass; [4]
  Plant response rating, Bermudagrass: 90
bermudagrass; [5]
  Bermudagrass plant response rating: 95
cocklebur; [6]
  Plant response rating, Cocklebur: 0
cocklebur; [3]
  Plant response rating, Cocklebur: 0
cocklebur; [4]
  Plant response rating, Cocklebur: 0
cocklebur; [5]
  Cocklebur plant response rating: 60
[1]; 62 g ai/ha, scale 0 to 100
  Sedge, Umbrella plant response rating: 80
[1]; [8]
  Sedge, Umbrella plant response rating: 90
[1]; [9]
  Sedge, Umbrella plant response rating: 90
[1]; [10]
  Plant response rating, Sedge, Umbrella: 95
Surinam grass; [6]
  Plant response rating, Surinam Grass: 0
Surinam grass; [4]
  Plant response rating, Surinam Grass: 80
Surinam grass; [12]
  Plant response rating, Surinam Grass: 90
soybean; [6]
  Plant response rating, Soybean: 15
soybean; [4]
  Plant response rating, Soybean: 20
soybean; [12]
  Plant response rating, Soybean: 45
ducksalad; 62 g ai/ha, scale 0 to 100
  Ducksalad plant response rating: 85
ducksalad; [8]
  Ducksalad plant response rating: 90
ducksalad; [9]
  Ducksalad plant response rating: 90
ducksalad; [10]
  Plant response rating, Ducksalad: 95
goosegrass; [6]
  Plant response rating, Goosegrass: 50
goosegrass; [3]
  Plant response rating, Goosegrass: 90
goosegrass; [4]
  Plant response rating, Goosegrass: 100
goosegrass; [12]
  Plant response rating, Goosegrass: 100
johnsongrass; [6]
  Plant response rating, Johnsongrass: 30
johnsongrass; [4]
  Plant response rating, Johnsongrass: 85
johnsongrass; [12]
  Plant response rating, Johnsongrass: 95
pigweed; [6]
  Plant response rating, Pigweed: 100
pigweed; [3]
  Plant response rating, Pigweed: 100
pigweed; [4]
  Plant response rating, Pigweed: 100
pigweed; [12]
  Plant response rating, Pigweed: 100
